The source of these data is ChEMBL document CHEMBL5050837, “Rictor-targeted therapy in the management of brain metastases” (2021).

The source made the active and inactive calls. The calls are words filed in the database; no cut-off is given here.

The subject of assay [1] is NCI-H1703. Description: Inhibition of RICTOR-amplified human NCI-H1703 cells invasion. It counts as functional, cell-based.
Assay [2] has as its system NCI-H23. Put plainly: Inhibition of RICTOR-amplified human NCI-H23 cells invasion. It counts as functional, cell-based.
The test system of assay [3] is NCI-H1703. Description: Inhibition of RICTOR-amplified human NCI-H1703 cells migration. It counts as functional, cell-based.
Assay [4] concerns NCI-H23. Put plainly: Inhibition of RICTOR-amplified human NCI-H23 cells migration. It is filed as functional, cell-based.
Assay [5] deals with NCI-H23. Put plainly: Antitumor activity against RICTOR-knockdown human NCI-H23 cells xenografted in mouse assessed as inhibition of tumor growth. It is filed as functional.
For assay [6], the system named is HCC827. Put plainly: Inhibition of RICTOR-upregulated human HCC827 cell invasion. It counts as functional, cell-based.
In assay [7] the test system is HCC827. Description: Inhibition of RICTOR-upregulated human HCC827 cell migration. It counts as functional, cell-based.
The test system of assay [8] is PC-9. Put plainly: Antiproliferative activity against doxycycline-induced RICTOR-knockdown human PC-9 cells. It counts as functional, cell-based.
Assay [9] has as its system HCC827. Description: Antiproliferative activity against doxycycline-induced RICTOR-knockdown human HCC827 cells. It counts as functional, cell-based.
The test system of assay [10] is HCC827. Description: Antitumor activity against erlotinib-resistant doxycycline-induced RICTOR-knockdown human HCC827 cells xenografted in mouse assessed as decrease in Axl expression. It is filed as functional, cell-based. A general note: In xenograft studies the graft and the host belong to different species.
For assay [11], the system named is HCC827. Description: Antitumor activity against erlotinib-resistant doxycycline-induced RICTOR-knockdown human HCC827 cells xenografted in mouse assessed as inhibition of tumor growth. It is filed as functional, cell-based.
In assay [12] the test system is HCC827. Put plainly: Antiproliferative activity against erlotinib-resistant doxycycline-induced RICTOR-knockdown human HCC827 cells assessed as fold decrease in compound IC50. It counts as functional.
The subject of assay [13] is PC-9. Put plainly: Down-regulation of Axl in RICTOR-knockdown human PC-9 cells assessed as half-life of Axl. It counts as functional, cell-based.
The subject of assay [14] is HCC827. Description: Induction of apoptosis in RICTOR-upregulated human HCC827 cells. It counts as functional, cell-based.
For assay [15], the system named is HCC827. Put plainly: Induction of apoptosis in erlotinib-resistant human HCC827 cells with RICTOR-knockdown. It is filed as functional, cell-based.

Consider `CNC(=O)c1cccc(-c2ccc3c(N4CCOC[C@@H]4C)nc(N4CCOC[C@@H]4C)nc3n2)c1`, for which the inhibition entry with NCI-H1703 [1], in the assay with NCI-H23 [2], with NCI-H1703 [3] and in the assay with NCI-H23 [4] was “Active” in each case.
One may read the TGI as the reduction of tumour growth relative to the control group. `CC(C)n1nc(-c2ccc3oc(N)nc3c2)c2c(N)ncnc21` [SAPANISERTIB]: the inhibition result in the assay with NCI-H1703 [1], with NCI-H23 [2], in the assay on NCI-H1703 [3], with HCC827 [6], in the assay with NCI-H23 [4] and in the assay with HCC827 [7] was “Active” each time. Further, the TGI in the assay on NCI-H23 [5] is on record as 75%.
As to `C#Cc1cccc(Nc2ncnc3cc(OCCOC)c(OCCOC)cc23)c1` [ERLOTINIB], the outcome in the assay with PC-9 [8], in the assay with HCC827 [9], with HCC827 [10] and with HCC827 [11] was Active. Moreover, the “fold change (FC)” value in the assay with HCC827 [12] is listed as 1000.
Consider `C[C@@H]1C[C@@H]([C@H](O)CC2CC(=O)NC(=O)C2)C(=O)[C@@H](C)C1`, for which, in the assay with PC-9 [13], the T1/2 worked out at 3.2 h.
Turning to `C=CC(=O)Nc1cc(Nc2nccc(-c3cn(C)c4ccccc34)n2)c(OC)cc1N(C)CCN(C)C`, in the assay on HCC827 [14], the outcome was inactive. The result in the assay on HCC827 [15] and in the assay on PC-9 [8] was Active.
Regarding `CN(C)C/C=C/C(=O)Nc1cc2c(Nc3ccc(F)c(Cl)c3)ncnc2cc1O[C@H]1CCOC1`, the result in the assay on HCC827 [9] was Active.
